Results as given in patent US20240327800A1, “HIGH THROUGHPUT LOCALIZED PASSIVE DIFFUSION DEVICE FOR PATTERNING ORGANOIDS” (University of Massachusetts, priority 2023, published 2024).

Test system: hESCs (H9) derived forebrain organoid
Assay: Dorsal-ventral patterning of forebrain organoids with a gradient of Shh agonist (immunostaining)
Format: cell-based, human
Experimental: The cells were sub-passaged every 3 to 4 days by 80% to 90% confluence. Before cell culturing, the device 500 was incubated in 2% pluronic for one hour, rinsed with 1×DPBS three times, and dried out before adding the gelatin-transglutaminase mixture to layer 3. Before cell seeding, the medium and medium chambers were incubated at room temperature with E8 basal for up to 24 hrs. The gelatin in the microwells was aspirated after being soaked in the E8 basal before cell seeding.
Cells were seeded using E8 medium supplemented with 10 uM Rock inhibitor (Y27). 100, 000 cells suspended in 5 μl medium were then pipetted into each microwell. Then, the device 500 was centrifuged at 200 g for 2 mins. Then, another 1 ml and 500 μl of medium were added into the medium chamber and the morphogen chamber, respectively. The device 500 was placed into a 37 C.° incubator overnight to generate a cell aggregate. […] It was observed that the EBs were immobilized by growing them around the sutures. To grow EBs around the sutures, a high density of hESCs was seeded directly into the microwell. The size of the EB spheroid at day 8, around 500 μm, was consistent with the diameter of the EB at day 1. The size of EB spheroid could be grown by changing the E8 medium and adding 1% PS daily during continued culturing.
Essential 6 (E6) medium supplemented with 1% PS, 5 μM dorsomorphin (DM), and 10 μM SB-431542 for both medium and morphogen chambers for six days for dual SMAD inhibition. […] To generate a D-V patterned organoid, 5 μM of purmorphamine and 5 μM of IWP-2 were supplemented to the basal medium in the morphogen chamber for five days between day 14 to day 30. To generate cortical organoids, the basal medium was used for both the medium and the morphogen chamber. To generate subpallial organoids, purmorphamine and IWP-2 supplement medium were used for both chambers. The medium was changed daily until day 30.
The organoids were then rinsed with 1×DPBS two times for 10 mins, then fixed by incubating in 4% paraformaldehyde (Electron Microscopy Sciences) at 4 C.° overnight. […]

c1ccc2c(Oc3nc(Nc4ccc(N5CCOCC5)cc4)c4ncn(C5CCCCC5)c4n3)cccc2c1 [purmorphamine]
D-V patterning (Uniform Pur control: purmorphamine in both medium chamber and morphogen chamber (no gradient)): No D-V patterning was established
NKX2.1 marker expression (ventral fate differentiation) (gradient group, 5 μM purmorphamine in morphogen chamber (with 5 μM IWP-2), five continuous days between day 14 and day 30, bottom half of organoid): higher expression level of NKX2.1 makers was established at the bottom half of the organoid
PAX6 expression (dorsal fate differentiation) (gradient group, 5 μM purmorphamine in morphogen chamber, five continuous days between day 14 and day 30, top half of organoid): dominant expression of PAX6 was observed
